Measured values: patent US8329717B2, “Pyrimidine derivatives and their use for controlling undesired plant growth” (Bayer Cropscience AG, priority 2008, dated 2012)
Blank lines part the entries; values can stand above or below the compound they belong to.

Assays:
[1] = test system: Setaria viridis; assay: Post-emergence herbicidal effect; type: in vivo; conditions: Dosage 320 g/ha, one-leaf stage, visual scoring after ca. 3 weeks vs untreated controls, 100% = plants have died
Method in brief: (§1)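 Greenhouse-grown plants in sandy loam sprayed at one-leaf stage (2-3 weeks after sowing) with WP or EC formulations at 600 to 800 l/ha water plus 0.2% wetting agent; dose in g/ha. Visual % effect versus untreated controls scored after ca. 3 weeks (100% = dead).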

[2] = test system: Alopecurus myosuroides; assay: Post-emergence herbicidal effect; type: in vivo; conditions: Dosage 320 g/ha, one-leaf stage, visual scoring after ca. 3 weeks vs untreated controls, 100% = plants have died
Method in brief: as §1

[3] = test system: Lolium multiflorum; assay: Post-emergence herbicidal effect; type: in vivo; conditions: Dosage 320 g/ha, one-leaf stage, visual scoring after ca. 3 weeks vs untreated controls, 100% = plants have died
Method in brief: as §1

[4] = test system: Avena fatua; assay: Post-emergence herbicidal effect; type: in vivo; conditions: Dosage 320 g/ha, one-leaf stage, visual scoring after ca. 3 weeks vs untreated controls, 100% = plants have died
Method in brief: as §1

[5] = test system: Veronica persica; assay: Post-emergence herbicidal effect; type: in vivo; conditions: Dosage 320 g/ha, one-leaf stage, visual scoring after ca. 3 weeks vs untreated controls, 100% = plants have died
Method in brief: as §1

[6] = test system: Echinochloa crus-galli; assay: Post-emergence herbicidal effect; type: in vivo; conditions: Dosage 320 g/ha, one-leaf stage, visual scoring after ca. 3 weeks vs untreated controls, 100% = plants have died
Method in brief: as §1

[7] = test system: Stellaria media; assay: Post-emergence herbicidal effect; type: in vivo; conditions: Dosage 320 g/ha, one-leaf stage, visual scoring after ca. 3 weeks vs untreated controls, 100% = plants have died
Method in brief: as §1

[8] = test system: Amaranthus retroflexus; assay: Post-emergence herbicidal effect; type: in vivo; conditions: Dosage 320 g/ha, one-leaf stage, visual scoring after ca. 3 weeks vs untreated controls, 100% = plants have died
Method in brief: as §1

[9] = test system: PHBPU; assay: Post-emergence herbicidal effect; type: in vivo; conditions: Dosage 320 g/ha, one-leaf stage, visual scoring after ca. 3 weeks vs untreated controls, 100% = plants have died
Method in brief: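 Greenhouse weeds or crops in sandy loam treated at one-leaf stage (2 to 3 weeks after sowing) by spraying WP or EC formulations at 600 to 800 l/ha water with 0.2% wetting agent; dose in g/ha. Visual % effect scored after ca. 3 weeks against untreated controls (100% = dead, 0% = as control).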

[10] = test system: Setaria viridis; assay: Pre-emergence herbicidal effect; type: in vivo; conditions: Dosage 320 g/ha, visual scoring after 3 weeks vs untreated controls, 100% = plants have died
Method in brief: (§2)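 Damage rated visually after 3 weeks in greenhouse relative to untreated plants, 100% meaning plants died and 0% unaffected. Compounds, dosed in grams per hectare as WP or EC in 600 to 800 l/ha water plus 0.2% wetting agent, were applied pre-emergence to soil over seeds sown in sandy loam.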

[11] = test system: Alopecurus myosuroides; assay: Pre-emergence herbicidal effect; type: in vivo; conditions: Dosage 320 g/ha, visual scoring after 3 weeks vs untreated controls, 100% = plants have died
Method in brief: as §2

[12] = test system: Lolium multiflorum; assay: Pre-emergence herbicidal effect; type: in vivo; conditions: Dosage 320 g/ha, visual scoring after 3 weeks vs untreated controls, 100% = plants have died
Method in brief: as §2

[13] = test system: Cyperus esculentus; assay: Pre-emergence herbicidal effect; type: in vivo; conditions: Dosage 320 g/ha, visual scoring after 3 weeks vs untreated controls, 100% = plants have died
Method in brief: as §2

[14] = test system: Polygonum convolvulus; assay: Pre-emergence herbicidal effect; type: in vivo; conditions: Dosage 320 g/ha, visual scoring after 3 weeks vs untreated controls, 100% = plants have died
Method in brief: as §2

[15] = test system: Avena fatua; assay: Pre-emergence herbicidal effect; type: in vivo; conditions: Dosage 320 g/ha, visual scoring after 3 weeks vs untreated controls, 100% = plants have died
Method in brief: as §2

[16] = test system: Veronica persica; assay: Pre-emergence herbicidal effect; type: in vivo; conditions: Dosage 320 g/ha, visual scoring after 3 weeks vs untreated controls, 100% = plants have died
Method in brief: as §2

[17] = test system: Viola tricolor; assay: Pre-emergence herbicidal effect; type: in vivo; conditions: Dosage 320 g/ha, visual scoring after 3 weeks vs untreated controls, 100% = plants have died
Method in brief: as §2

[18] = test system: Echinochloa crus-galli; assay: Pre-emergence herbicidal effect; type: in vivo; conditions: Dosage 320 g/ha, visual scoring after 3 weeks vs untreated controls, 100% = plants have died
Method in brief: as §2

[19] = test system: Matricaria inodora; assay: Pre-emergence herbicidal effect; type: in vivo; conditions: Dosage 320 g/ha, visual scoring after 3 weeks vs untreated controls, 100% = plants have died
Method in brief: as §2

[20] = test system: Stellaria media; assay: Pre-emergence herbicidal effect; type: in vivo; conditions: Dosage 320 g/ha, visual scoring after 3 weeks vs untreated controls, 100% = plants have died
Method in brief: as §2

[21] = test system: Amaranthus retroflexus; assay: Pre-emergence herbicidal effect; type: in vivo; conditions: Dosage 320 g/ha, visual scoring after 3 weeks vs untreated controls, 100% = plants have died
Method in brief: as §2

[22] = logp (HCOOH), chemicophysical data
[23] = test system: Abutilon theophrasti; assay: Post-emergence herbicidal effect; type: in vivo; conditions: Dosage 320 g/ha, one-leaf stage, visual scoring after ca. 3 weeks vs untreated controls, 100% = plants have died
Method in brief: as §1

[24] = test system: Viola tricolor; assay: Post-emergence herbicidal effect; type: in vivo; conditions: Dosage 320 g/ha, one-leaf stage, visual scoring after ca. 3 weeks vs untreated controls, 100% = plants have died
Method in brief: as §1

[25] = test system: Matricaria inodora; assay: Post-emergence herbicidal effect; type: in vivo; conditions: Dosage 320 g/ha, one-leaf stage, visual scoring after ca. 3 weeks vs untreated controls, 100% = plants have died
Method in brief: as §1

[26] = test system: Abutilon theophrasti; assay: Pre-emergence herbicidal effect; type: in vivo; conditions: Dosage 320 g/ha, visual scoring after 3 weeks vs untreated controls, 100% = plants have died
Method in brief: as §2

[27] = test system: Polygonum convolvulus; assay: Post-emergence herbicidal effect; type: in vivo; conditions: Dosage 320 g/ha, one-leaf stage, visual scoring after ca. 3 weeks vs untreated controls, 100% = plants have died
Method in brief: as §1

SMILES: Cc1ccc2c(c1)[C@H](Nc1ncc(F)c(N)n1)[C@@H](C)C2 [Example 1.56]
Post-emergence herbicidal effect SETVI [1]: 80%
Post-emergence herbicidal effect ALOMY [2]: 85%
Post-emergence herbicidal effect LOLMU [3]: 93%
Post-emergence herbicidal effect AVEFA [4]: 80%
Post-emergence herbicidal effect VERPE [5]: 90%
Post-emergence herbicidal effect ECHCG [6]: 90%
Post-emergence herbicidal effect STEME [7]: 80%
Post-emergence herbicidal effect AMARE [8]: 80%
Post-emergence herbicidal effect PHBPU [9]: 90%
Pre-emergence herbicidal effect SETVI [10]: 100%
Pre-emergence herbicidal effect ALOMY [11]: 100%
Pre-emergence herbicidal effect LOLMU [12]: 100%
Pre-emergence herbicidal effect CYPES [13]: 80%
Pre-emergence herbicidal effect POLCO [14]: 95%
Pre-emergence herbicidal effect AVEFA [15]: 100%
Pre-emergence herbicidal effect VERPE [16]: 100%
Pre-emergence herbicidal effect VIOTR [17]: 100%
Pre-emergence herbicidal effect ECHCG [18]: 100%
Pre-emergence herbicidal effect MATIN [19]: 100%
Pre-emergence herbicidal effect STEME [20]: 100%
Pre-emergence herbicidal effect AMARE [21]: 100%
logp (HCOOH) ([22]; HCOOH): wax-like; logp (HCOOH): 1.20; 1H-NMR (CDCl3, 400 MHZ, δ in ppm): 1.25 (d, 3H, CH3);

SMILES: Cc1nc(N[C@@H]2CCCc3ccccc32)nc(N)c1C#N [Example 1.18]
Post-emergence herbicidal effect SETVI [1]: 90%
Post-emergence herbicidal effect ALOMY [2]: 85%
Post-emergence herbicidal effect LOLMU [3]: 87%
Post-emergence herbicidal effect VERPE [5]: 83%
Post-emergence herbicidal effect ABUTH [23]: 85%
Post-emergence herbicidal effect VIOTR [24]: 85%
Post-emergence herbicidal effect ECHCG [6]: 87%
Post-emergence herbicidal effect MATIN [25]: 80%
Post-emergence herbicidal effect STEME [7]: 93%
Post-emergence herbicidal effect AMARE [8]: 85%
Post-emergence herbicidal effect PHBPU [9]: 80%
Pre-emergence herbicidal effect SETVI [10]: 100%
Pre-emergence herbicidal effect ALOMY [11]: 100%
Pre-emergence herbicidal effect LOLMU [12]: 100%
Pre-emergence herbicidal effect CYPES [13]: 80%
Pre-emergence herbicidal effect AVEFA [15]: 90%
Pre-emergence herbicidal effect VERPE [16]: 100%
Pre-emergence herbicidal effect ABUTH [26]: 100%
Pre-emergence herbicidal effect ECHCG [18]: 100%
Pre-emergence herbicidal effect MATIN [19]: 100%
Pre-emergence herbicidal effect STEME [20]: 100%
Pre-emergence herbicidal effect AMARE [21]: 100%

chromatographic logP ([22]; HCOOH (formic acid)): 1.92
SMILES: N#Cc1cnc(N[C@@H]2CCCc3ccccc32)nc1N [Example 1.30, 4-Amino-2-[(1R)-1,2,3,4-tetrahydronaphthalen-1-ylamino]pyrimidine-5-carbonitrile]
Post-emergence herbicidal effect SETVI [1]: 95%
Post-emergence herbicidal effect ALOMY [2]: 95%
Post-emergence herbicidal effect LOLMU [3]: 100%
Post-emergence herbicidal effect POLCO [27]: 80%
Post-emergence herbicidal effect AVEFA [4]: 100%
Post-emergence herbicidal effect VERPE [5]: 90%
Post-emergence herbicidal effect ECHCG [6]: 100%
Post-emergence herbicidal effect MATIN [25]: 80%
Post-emergence herbicidal effect STEME [7]: 80%
Post-emergence herbicidal effect AMARE [8]: 93%
Pre-emergence herbicidal effect SETVI [10]: 100%
Pre-emergence herbicidal effect ALOMY [11]: 100%
Pre-emergence herbicidal effect LOLMU [12]: 100%
Pre-emergence herbicidal effect POLCO [14]: 100%
Pre-emergence herbicidal effect AVEFA [15]: 100%
Pre-emergence herbicidal effect VERPE [16]: 100%
Pre-emergence herbicidal effect VIOTR [17]: 100%
Pre-emergence herbicidal effect ECHCG [18]: 100%
Pre-emergence herbicidal effect MATIN [19]: 100%
Pre-emergence herbicidal effect STEME [20]: 100%
Pre-emergence herbicidal effect AMARE [21]: 100%
